pIC50, pKi: −log10 of the molar value.
Assays:
[1] = DRUGMATRIX: ATPase, Na+/K+ enzyme inhibition (substrate: ATP); format: tissue-based, Sus scrofa, Heart; conditions: Not Active = under 50% inhibition at 10 µM
[2] = DRUGMATRIX: Serotonin (5-Hydroxytryptamine) 5-HT3 radioligand binding (ligand: [3H] GR-65630); format: cell membranes, Membrane; conditions: hek293; Not Active = under 50% inhibition at 10 µM
Carbonic anhydrase 2 = Carbonic anhydrase 2 (Homo sapiens, UniProt P00918); assay: DRUGMATRIX: Carbonic Anhydrase II enzyme inhibition (substrate: 4-Nitrophenyl acetate (4-NPA)); format: tissue-based, Erythrocyte; conditions: Not Active = under 50% inhibition at 10 µM
Cytochrome P450 2C19 = Cytochrome P450 2C19 (Homo sapiens, UniProt P33261); conditions: bti-tn-5b1-4; also: in other assays of this panel Not Active means under 50% inhibition at 10 µM
Cytochrome P450 2C19, sequence (P33261 whole entry): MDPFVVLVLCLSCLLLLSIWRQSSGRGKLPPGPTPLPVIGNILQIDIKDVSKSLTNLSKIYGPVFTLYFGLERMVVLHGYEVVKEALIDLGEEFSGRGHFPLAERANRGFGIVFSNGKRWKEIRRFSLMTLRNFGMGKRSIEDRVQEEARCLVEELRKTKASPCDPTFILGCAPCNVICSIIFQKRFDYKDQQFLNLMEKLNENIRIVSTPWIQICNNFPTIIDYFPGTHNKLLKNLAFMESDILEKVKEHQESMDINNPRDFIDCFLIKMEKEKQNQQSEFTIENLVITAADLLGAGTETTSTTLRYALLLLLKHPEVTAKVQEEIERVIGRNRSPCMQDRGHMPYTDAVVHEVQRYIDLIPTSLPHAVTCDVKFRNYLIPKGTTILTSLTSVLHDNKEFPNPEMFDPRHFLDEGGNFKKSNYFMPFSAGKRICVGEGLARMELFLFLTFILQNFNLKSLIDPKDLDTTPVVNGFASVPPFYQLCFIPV

[3] = biological target: Voltage-gated inwardly rectifying potassium channel KCNH2 (Homo sapiens, UniProt Q12809); conditions: hek293; also: in other assays of this panel Not Active means under 50% inhibition at 10 µM
Voltage-gated inwardly rectifying potassium channel KCNH2, sequence (Q12809 whole entry): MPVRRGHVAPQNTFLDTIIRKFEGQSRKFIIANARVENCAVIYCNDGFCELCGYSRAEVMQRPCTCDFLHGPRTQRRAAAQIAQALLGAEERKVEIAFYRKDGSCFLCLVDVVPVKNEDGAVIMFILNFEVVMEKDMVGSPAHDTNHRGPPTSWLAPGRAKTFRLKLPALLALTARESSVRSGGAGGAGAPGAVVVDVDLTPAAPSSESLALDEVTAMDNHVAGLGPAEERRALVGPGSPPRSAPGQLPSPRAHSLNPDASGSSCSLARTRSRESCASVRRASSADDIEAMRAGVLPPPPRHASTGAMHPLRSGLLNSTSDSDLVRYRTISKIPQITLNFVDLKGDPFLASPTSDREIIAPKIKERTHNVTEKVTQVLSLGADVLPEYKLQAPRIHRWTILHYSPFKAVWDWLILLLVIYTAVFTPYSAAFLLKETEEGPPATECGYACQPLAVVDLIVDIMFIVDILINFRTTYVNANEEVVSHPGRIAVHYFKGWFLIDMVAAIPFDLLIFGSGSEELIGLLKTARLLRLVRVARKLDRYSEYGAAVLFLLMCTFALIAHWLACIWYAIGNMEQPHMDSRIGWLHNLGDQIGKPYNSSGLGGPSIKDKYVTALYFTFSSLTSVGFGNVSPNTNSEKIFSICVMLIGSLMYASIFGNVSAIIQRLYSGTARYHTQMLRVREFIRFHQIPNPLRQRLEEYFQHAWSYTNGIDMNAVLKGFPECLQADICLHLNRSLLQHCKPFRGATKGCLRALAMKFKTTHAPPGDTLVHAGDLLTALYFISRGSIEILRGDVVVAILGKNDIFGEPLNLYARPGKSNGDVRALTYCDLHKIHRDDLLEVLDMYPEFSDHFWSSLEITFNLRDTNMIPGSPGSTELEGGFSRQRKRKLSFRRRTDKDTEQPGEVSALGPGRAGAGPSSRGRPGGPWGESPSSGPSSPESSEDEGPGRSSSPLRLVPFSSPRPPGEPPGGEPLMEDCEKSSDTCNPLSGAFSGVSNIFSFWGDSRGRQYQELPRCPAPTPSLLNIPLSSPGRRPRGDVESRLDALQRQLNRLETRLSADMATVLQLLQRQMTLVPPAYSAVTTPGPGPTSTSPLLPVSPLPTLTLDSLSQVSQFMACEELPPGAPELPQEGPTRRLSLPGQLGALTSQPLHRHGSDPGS

[4] = biological target: Platelet-activating factor receptor (Homo sapiens, UniProt P25105); assay: biochemical; format: tissue-based; conditions: platelet; also: in other assays of this panel Not Active means under 50% inhibition at 10 µM
Platelet-activating factor receptor, sequence (P25105 whole entry): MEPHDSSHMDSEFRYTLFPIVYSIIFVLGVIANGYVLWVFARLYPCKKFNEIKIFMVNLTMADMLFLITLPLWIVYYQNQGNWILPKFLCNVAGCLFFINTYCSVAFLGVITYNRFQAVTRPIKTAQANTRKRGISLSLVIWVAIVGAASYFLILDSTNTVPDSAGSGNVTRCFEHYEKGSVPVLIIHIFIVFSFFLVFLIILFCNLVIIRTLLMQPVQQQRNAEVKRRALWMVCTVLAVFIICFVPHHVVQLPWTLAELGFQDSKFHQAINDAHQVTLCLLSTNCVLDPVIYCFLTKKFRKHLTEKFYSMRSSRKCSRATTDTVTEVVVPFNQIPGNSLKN

Endothelin-1 receptor = biological target: T1, Endothelin-1 receptor (Homo sapiens, UniProt P25101); format: cell membranes, CHO-K1, Membrane; also: in other assays of this panel Not Active means under 50% inhibition at 10 µM
T1 sequence (P25101 whole entry): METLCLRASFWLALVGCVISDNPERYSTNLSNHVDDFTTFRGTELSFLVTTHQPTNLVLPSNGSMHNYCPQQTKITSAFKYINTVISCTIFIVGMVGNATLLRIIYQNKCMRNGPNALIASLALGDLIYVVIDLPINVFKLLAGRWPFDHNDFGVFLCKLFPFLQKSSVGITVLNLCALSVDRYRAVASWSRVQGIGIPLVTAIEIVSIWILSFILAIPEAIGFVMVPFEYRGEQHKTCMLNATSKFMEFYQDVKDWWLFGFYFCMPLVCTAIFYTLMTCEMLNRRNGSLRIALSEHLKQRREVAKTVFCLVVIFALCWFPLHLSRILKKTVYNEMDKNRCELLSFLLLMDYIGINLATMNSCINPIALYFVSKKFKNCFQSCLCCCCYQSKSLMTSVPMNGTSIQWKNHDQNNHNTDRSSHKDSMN

| Molecule | IC50 [1] | Ki [1] | IC50 [2] | Ki [2] | IC50 (Carbonic anhydrase 2; erythrocyte) | Ki (Carbonic anhydrase 2; erythrocyte) | IC50 (Cytochrome P450 2C19) | Ki (Cytochrome P450 2C19) | IC50 [3] | Ki [3] | IC50 [4] | Ki [4] | IC50 (Endothelin-1 receptor; cho-k1) | Ki (Endothelin-1 receptor; cho-k1) | pIC50 (Endothelin-1 receptor; read-out: IC50) | pKi (Endothelin-1 receptor; read-out: Ki) | pIC50 (Carbonic anhydrase 2; read-out: IC50) |
| --- | --- | --- | --- | --- | --- | --- | --- | --- | --- | --- | --- | --- | --- | --- | --- | --- | --- |
| STANNOUS FLUORIDE | Not Active | Not Active | Not Active | Not Active | Not Active | Not Active | Not Active | Not Active | Not Active | Not Active | Not Active | Not Active | Not Active | Not Active |  |  |  |
| C[C@@H](O)[C@H]1C(=O)N2C(C(=O)O)=C(S[C@@H]3CN[C@H](C(=O)N(C)C)C3)[C@H](C)[C@H]12 [MEROPENEM] | Not Active | Not Active | Not Active | Not Active | Not Active |  | Not Active | Not Active | Not Active | Not Active | Not Active |  | Not Active |  |  |  |  |
| COc1ncnc(NS(=O)(=O)c2ccc(N)cc2)c1OC [SULFADOXINE] | Not Active | Not Active | Not Active | Not Active | Not Active |  | Not Active | Not Active | Not Active | Not Active | Not Active |  | Not Active |  |  |  |  |
| CCCc1nn(C)c2c(=O)[nH]c(-c3cc(S(=O)(=O)N4CCN(C)CC4)ccc3OCC)nc12 | Not Active | Not Active | Not Active | Not Active | Not Active |  | Not Active | Not Active |  |  | Not Active |  | Not Active |  |  |  |  |
| COc1ccc(/C=C/C(=O)Nc2ccccc2C(=O)O)cc1OC | Not Active | Not Active | Not Active | Not Active | Not Active |  | Not Active | Not Active | Not Active | Not Active | Not Active |  | Not Active |  |  |  |  |
| CC1=C(CC(=O)O)c2cc(F)ccc2/C1=C\c1ccc(S(C)(=O)=O)cc1 [EXISULIND] | Not Active | Not Active | Not Active | Not Active | Not Active |  | Not Active | Not Active | Not Active | Not Active | Not Active |  |  |  | 5.01 | 5.22 |  |
| CN1C2CCCC1CC(NC(=O)c1nn(C)c3ccccc13)C2 (centres undefined) [GRANISETRON] |  |  |  |  | Not Active |  | Not Active | Not Active | Not Active | Not Active | Not Active |  | Not Active |  |  |  |  |
| Cc1cn([C@H]2C[C@H](N=[N+]=[N-])[C@@H](CO)O2)c(=O)[nH]c1=O [ZIDOVUDINE] | Not Active | Not Active | Not Active | Not Active | Not Active |  | Not Active | Not Active | Not Active | Not Active | Not Active |  | Not Active |  |  |  |  |
| OCCN1CCN(CCCN2c3ccccc3Sc3ccc(C(F)(F)F)cc32)CC1 [FLUPHENAZINE] |  |  |  |  | Not Active |  |  |  |  |  | Not Active |  | Not Active |  |  |  |  |
| CC(C)(C)NC[C@H](O)COc1nsnc1N1CCOCC1 [TIMOLOL] | Not Active | Not Active | Not Active | Not Active | Not Active |  | Not Active | Not Active | Not Active | Not Active | Not Active |  | Not Active |  |  |  |  |
| Nc1nc2c(c(=O)[nH]1)N(C=O)C(CNc1ccc(C(=O)N[C@@H](CCC(=O)O)C(=O)O)cc1)CN2 (some centres undefined) [LEUCOVORIN] | Not Active | Not Active | Not Active | Not Active | Not Active |  | Not Active | Not Active | Not Active | Not Active | Not Active |  | Not Active |  |  |  |  |
| O=c1n(CCCN2CCN(c3cccc(Cl)c3)CC2)nc2ccccn12 [TRAZODONE] |  |  |  |  | Not Active |  | Not Active | Not Active | Not Active | Not Active | Not Active |  | Not Active |  |  |  |  |
| COc1cc(C(=O)NS(=O)(=O)c2ccccc2C)ccc1Cc1cn(C)c2ccc(NC(=O)OC3CCCC3)cc12 [ZAFIRLUKAST] | Not Active | Not Active | Not Active | Not Active | Not Active |  | Not Active | Not Active | Not Active | Not Active | Not Active |  | Not Active |  |  |  |  |
| CCOC(N)=O | Not Active | Not Active | Not Active | Not Active | Not Active |  | Not Active | Not Active | Not Active | Not Active | Not Active |  | Not Active |  |  |  |  |
| CN(CCOc1ccc(CC2SC(=O)NC2=O)cc1)c1ccccn1 (centres undefined) [ROSIGLITAZONE] | Not Active | Not Active | Not Active | Not Active |  |  | Not Active | Not Active | Not Active | Not Active | Not Active |  | Not Active |  |  |  | 5.39 |
| Nc1ccc(S(=O)(=O)Nc2ncccn2)cc1 [SULFADIAZINE] | Not Active | Not Active | Not Active | Not Active |  |  | Not Active | Not Active | Not Active | Not Active | Not Active |  | Not Active |  |  |  |  |
| CCS(=O)(=O)CCn1c([N+](=O)[O-])cnc1C [TINIDAZOLE] | Not Active | Not Active | Not Active | Not Active | Not Active |  |  |  | Not Active | Not Active | Not Active |  | Not Active |  |  |  |  |
| C=C(C)[C@H]1Cc2c(ccc3c2O[C@@H]2COc4cc(OC)c(OC)cc4[C@@H]2C3=O)O1 [ROTENONE] | Not Active | Not Active | Not Active | Not Active | Not Active |  |  |  | Not Active | Not Active | Not Active |  | Not Active |  |  |  |  |
| C#CCN(C)[C@H](C)Cc1ccccc1 [SELEGILINE] | Not Active | Not Active | Not Active | Not Active | Not Active |  |  |  | Not Active | Not Active | Not Active |  | Not Active |  |  |  |  |
| CC(C)OC(=O)C(C)(C)Oc1ccc(C(=O)c2ccc(Cl)cc2)cc1 [FENOFIBRATE] |  |  |  |  | Not Active |  | Not Active | Not Active | Not Active | Not Active | Not Active |  | Not Active |  |  |  |  |
| CCN(CC)CC#CCOC(=O)C(O)(c1ccccc1)C1CCCCC1 (centres undefined) [OXYBUTYNIN] |  |  |  |  | Not Active |  |  |  | Not Active | Not Active | Not Active |  | Not Active |  |  |  |  |
| CC(=O)Nc1nnc(S(N)(=O)=O)s1 [ACETAZOLAMIDE] |  |  |  |  |  |  | Not Active | Not Active | Not Active | Not Active | Not Active |  | Not Active |  |  |  |  |
| CC[C@@H](CO)NC(=O)[C@@H]1C=C2c3cccc4c3c(cn4C)C[C@H]2N(C)C1 [METHYSERGIDE] |  |  |  |  | Not Active |  | Not Active | Not Active | Not Active | Not Active | Not Active |  | Not Active |  |  |  |  |
| C[C@]12CC[C@H]3[C@@H](CCC4=CC(=O)CC[C@@]43C)[C@@H]1CC[C@@H]2O [TESTOSTERONE] | Not Active | Not Active | Not Active | Not Active | Not Active |  | Not Active | Not Active |  |  | Not Active |  | Not Active |  |  |  |  |
| CN[C@@H]1[C@H](O)[C@H](NC)[C@H]2O[C@@]3(O)C(=O)C[C@@H](C)O[C@H]3O[C@@H]2[C@H]1O [SPECTINOMYCIN] | Not Active | Not Active | Not Active | Not Active | Not Active |  |  |  | Not Active | Not Active | Not Active |  | Not Active |  |  |  |  |
| CO[C@H]1C[C@@H]2CC[C@@H](C)[C@@](O)(O2)C(=O)C(=O)N2CCCC[C@H]2C(=O)O[C@H]([C@H](C)C[C@@H]2CC[C@@H](O)[C@H](OC)C2)CC(=O)[C@H](C)/C=C(\C)[C@@H](O)[C@@H](OC)C(=O)[C@H](C)C[C@H](C)/C=C/C=C/C=C/1C [SIROLIMUS] | Not Active | Not Active | Not Active | Not Active | Not Active |  |  |  | Not Active | Not Active | Not Active |  | Not Active |  |  |  |  |
| O=c1[nH]c2ccccc2n1CCCN1CCC(n2c(=O)[nH]c3cc(Cl)ccc32)CC1 [DOMPERIDONE] |  |  |  |  | Not Active |  |  |  | Not Active | Not Active | Not Active |  | Not Active |  |  |  |  |
| COc1ccc(CN2CCNCC2)c(OC)c1OC [TRIMETAZIDINE] | Not Active | Not Active | Not Active | Not Active | Not Active |  |  |  | Not Active | Not Active | Not Active |  | Not Active |  |  |  |  |
